Measurements reported in PubChem BioAssay (NCI).
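Test compounds were applied to cells in 96-well plates for 48 hours at 5 doses. GI50 is the concentration that inhibits growth by half. TGI marks complete inhibition of growth.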

Columns and labels:
Assay in all cases: NCI-60 cell line screen, 48 h
[1] = test system: 786-0 renal
[2] = test system: HCC-2998 colon
[3] = test system: HOP-62 NSCLC
[4] = test system: NCI-H460 lung
[5] = test system: BT-549 breast
[6] = test system: HS 578T breast
[7] = test system: MDA-MB-231 breast
[8] = test system: MDA-MB-435
[9] = test system: NCI/ADR-RES ovarian
[10] = test system: T-47D breast

`CC1=C2CC[C@@]3(C)C(=CCC3O)C2(C)CCC1=O` (stereo partly specified) was tested, and the TGI [1] was greater than 100 µM, the TGI [2] was greater than 100 µM and the TGI [3] was greater than 100 µM. The TGI [4] was greater than 100 µM.
In the case of `CCOC(=O)c1c(-c2ccccc2)n2c(=O)cc(C)c3c(O)c(O)cc1c32`, the GI50 [1] is reported as 11.7 µM, the TGI [1] is reported as 53.7 µM and the GI50 [5] is reported as 7.08 µM. For the same molecule, the TGI [5] was 24.1 µM, the GI50 [3] was 11.1 µM and the TGI [3] was 54.5 µM. It also gave a GI50 [6] of 14.7 µM, a TGI [6] of 56.6 µM and a GI50 [7] of 6.64 µM. For the same molecule, the TGI [7] was 27.7 µM, the GI50 [8] was 15.7 µM and the TGI [8] was greater than 100 µM. It also gave a GI50 [4] of 2.6 µM, a TGI [4] of 25.3 µM and a GI50 [9] of 2.47 µM. For the same molecule, the TGI [9] was greater than 100 µM, the GI50 [10] was 5.43 µM and the TGI [10] was greater than 100 µM.
`O=C(Cc1cc(O)ccc1O)NO` showed a GI50 [1] of 18.9 µM, a TGI [1] of 34.5 µM and a GI50 [5] of 85.7 µM. For the same molecule, the TGI [5] was greater than 100 µM, the GI50 [2] was greater than 100 µM and the TGI [2] was greater than 100 µM. The GI50 [3] was greater than 100 µM, the TGI [3] was greater than 100 µM and the GI50 [6] was greater than 100 µM. The TGI [6] was greater than 100 µM, the GI50 [7] was 19.9 µM and the TGI [7] was 47 µM. It also gave a GI50 [8] of 15.4 µM, a TGI [8] of 31.2 µM and a GI50 [4] of 89.8 µM. For the same molecule, the TGI [4] was greater than 100 µM, the GI50 [9] was greater than 100 µM and the TGI [9] was greater than 100 µM.
For `O=C(O)CN1C(=O)OC(c2ccccc2)C1=O` (stereo unspecified), the TGI [1] was greater than 100 µM, the TGI [5] was greater than 100 µM and the TGI [3] was greater than 100 µM. It also gave a TGI [6] greater than 100 µM, a TGI [7] greater than 100 µM and a TGI [8] greater than 100 µM. It also gave a TGI [4] greater than 100 µM, a TGI [9] greater than 100 µM and a TGI [10] greater than 100 µM.
`c1cc[n+](Cc2c3ccccc3cc3c2ccc2ccccc23)cc1` gave a GI50 [1] of 4.83 µM, a TGI [1] of 26.1 µM and a GI50 [5] of 1.73 µM. The TGI [5] was 4.6 µM, the GI50 [2] was 3.38 µM and the TGI [2] was 19.4 µM. It also gave a GI50 [3] of 2.41 µM, a TGI [3] of 11.7 µM and a GI50 [6] of 1.96 µM. It also gave a TGI [6] of 8.65 µM, a GI50 [7] of 6.08 µM and a TGI [7] of 20 µM. It also gave a GI50 [8] of 3.29 µM, a TGI [8] of 12.2 µM and a GI50 [4] of 3.26 µM. The TGI [4] was 11.9 µM, the GI50 [9] was greater than 100 µM and the TGI [9] was greater than 100 µM. The GI50 [10] was 2.34 µM and the TGI [10] was 7.92 µM.
`COc1ccc(OC)c(C2=C(c3cn(C)c4ccccc34)C(=O)NC2=O)c1` gave a GI50 [1] greater than 25 µM, a TGI [1] greater than 25 µM and a GI50 [5] greater than 25 µM. The TGI [5] was greater than 25 µM, the GI50 [2] was greater than 25 µM and the TGI [2] was greater than 25 µM. The GI50 [3] was greater than 25 µM, the TGI [3] was greater than 25 µM and the GI50 [6] was greater than 16.9 µM. For the same molecule, the TGI [6] was greater than 25 µM, the GI50 [7] was greater than 25 µM and the TGI [7] was greater than 25 µM. For the same molecule, the GI50 [8] was 8.6 µM, the TGI [8] was greater than 25 µM and the GI50 [4] was greater than 25 µM. It also gave a TGI [4] greater than 25 µM, a GI50 [9] greater than 25 µM and a TGI [9] greater than 25 µM. It also gave a GI50 [10] greater than 25 µM and a TGI [10] greater than 25 µM.
`OC1CC(O)O[C@H](c2ccccc2)C1` (stereo partly specified) gave a TGI [1] greater than 100 µM, a TGI [2] greater than 100 µM and a TGI [3] greater than 100 µM. It also gave a TGI [4] greater than 100 µM.
With `Cc1[nH]c(=O)n2c(C)nnc2c1C(=O)O` the TGI [1] was greater than 100 µM, the TGI [3] was greater than 100 µM and the TGI [4] was greater than 100 µM.
In the case of `CC[O-].CC[O-].O=C1C=C([O-])C(=O)c2ccccc21.O=C1C=C([O-])C(=O)c2ccccc21.[Ti+4]`, the GI50 [1] is reported as greater than 100 µM, the TGI [1] is reported as greater than 100 µM and the GI50 [2] is reported as 46.1 µM. The TGI [2] was greater than 100 µM, the GI50 [3] was greater than 100 µM and the TGI [3] was greater than 100 µM. It also gave a GI50 [4] of 7.76 µM and a TGI [4] greater than 92.9 µM.
`C[C@@H](NC1CCCC[C@@H]1O)c1ccccc1` (stereo partly specified) showed a TGI [1] greater than 100 µM, a TGI [2] greater than 100 µM and a TGI [3] greater than 100 µM. For the same molecule, the TGI [4] was greater than 100 µM.
`OC1(C(Sc2ccccc2)Sc2ccccc2)CCCCCC1` was tested, and the TGI [1] was 64.9 µM, the TGI [3] was 59.5 µM and the TGI [4] was 75.5 µM.
Molecule `Cc1ccc2ncnc(N(C)C3CCCCC3)c2c1` has a GI50 [1] of 32.3 µM, a TGI [1] greater than 100 µM and a GI50 [2] of 28.8 µM. It also gave a TGI [2] of 70.2 µM, a GI50 [3] of 28.7 µM and a TGI [3] greater than 100 µM. The GI50 [6] was greater than 100 µM, the TGI [6] was greater than 100 µM and the GI50 [8] was 23 µM. It also gave a TGI [8] of 68.2 µM, a GI50 [4] of 25.3 µM and a TGI [4] greater than 100 µM. It also gave a GI50 [9] of 19.1 µM, a TGI [9] of 53 µM and a GI50 [10] of 76.9 µM. The TGI [10] was greater than 100 µM.
`CC(=O)Oc1ccc2c(=O)c(C(C)=O)coc2c1` was tested, and the TGI [1] was greater than 100 µM, the TGI [3] was greater than 100 µM and the TGI [4] was greater than 100 µM.
`CCN1CCN(Cc2ccc(NC(=O)Nc3nc(-c4cc(OC)c(OC)c(OC)c4)cs3)cc2C(F)(F)F)CC1` was tested, and the GI50 [1] was 1.66 µM, the TGI [1] was 3.15 µM and the GI50 [5] was 1.91 µM. The TGI [5] was 4.58 µM, the GI50 [2] was 1.8 µM and the TGI [2] was 3.4 µM. For the same molecule, the GI50 [6] was 1.65 µM, the TGI [6] was 5.04 µM and the GI50 [7] was 1.6 µM. It also gave a TGI [7] of 3.46 µM, a GI50 [8] of 1.5 µM and a TGI [8] of 2.82 µM. It also gave a GI50 [4] of 1.65 µM and a TGI [4] of 3.2 µM.
Work on `CNC(=O)/C=C/C1=CN2C(=O)c3ccc(C)c(O)c3NC(OC)C2C1` (stereo unspecified) yielded a TGI [1] of 9.15 µM, a TGI [2] of less than 0.0173 µM and a TGI [3] of 0.328 µM. For the same molecule, the TGI [6] was less than 0.0264 µM, the TGI [7] was less than 0.0397 µM and the TGI [8] was less than 0.0176 µM. For the same molecule, the TGI [4] was 1.03 µM, the TGI [9] was less than 0.0323 µM and the TGI [10] was less than 0.0489 µM.
In the case of `CCOc1cc(Cl)c(C(C)NC(=O)c2cccc(OC)c2)cc1OCC` (stereo unspecified), the GI50 [1] is reported as 20.5 µM, the TGI [1] is reported as greater than 100 µM and the GI50 [5] is reported as 13.4 µM. The TGI [5] was greater than 100 µM, the GI50 [2] was 28.8 µM and the TGI [2] was greater than 100 µM. It also gave a GI50 [3] of 6.94 µM, a TGI [3] greater than 100 µM and a GI50 [6] of 11.8 µM. It also gave a TGI [6] greater than 100 µM, a GI50 [7] of 11.1 µM and a TGI [7] greater than 100 µM. For the same molecule, the GI50 [4] was 4.79 µM, the TGI [4] was greater than 54.8 µM and the GI50 [9] was 4.18 µM. For the same molecule, the TGI [9] was greater than 100 µM, the GI50 [10] was 7.06 µM and the TGI [10] was greater than 100 µM.
With `O=C(O)C1=Cc2cccc3cccc(c23)C1=O` the TGI [1] was greater than 100 µM, the TGI [2] was greater than 100 µM and the TGI [3] was greater than 100 µM. It also gave a TGI [4] greater than 100 µM.
For `COC(=O)c1cc(O)ccc1O`, the TGI [1] was greater than 100 µM, the TGI [2] was greater than 100 µM and the TGI [3] was greater than 100 µM. For the same molecule, the TGI [4] was greater than 100 µM.
Molecule `COc1cc2c(Nc3ccc(-c4ccc(N)cc4)cc3)ncnc2c(OC)c1OC` has a GI50 [1] of 3.72 µM, a TGI [1] greater than 100 µM and a GI50 [5] of 7.99 µM. For the same molecule, the TGI [5] was 55 µM, the GI50 [3] was 24.8 µM and the TGI [3] was greater than 100 µM. The GI50 [6] was 11.5 µM, the TGI [6] was greater than 68 µM and the GI50 [7] was 2.9 µM. It also gave a TGI [7] greater than 100 µM, a GI50 [8] of 0.752 µM and a TGI [8] of 47.1 µM. The GI50 [4] was 2.89 µM, the TGI [4] was greater than 66.4 µM and the GI50 [9] was 4.54 µM. The TGI [9] was greater than 100 µM, the GI50 [10] was 5.13 µM and the TGI [10] was 86.7 µM.
`C=C(C)COc1ccc2c(c1)CCC1C2CCC2(C)C(=O)/C(=N/O)CC12` (stereo unspecified) was tested, and the TGI [1] was 13 µM, the TGI [5] was 21.2 µM and the TGI [3] was 21.2 µM. It also gave a TGI [6] of 27.7 µM, a TGI [7] of 4.93 µM and a TGI [8] of 7.61 µM. The TGI [4] was 3.14 µM, the TGI [9] was 21.8 µM and the TGI [10] was 8.61 µM.
